Test results from the NIST ThermoML archive (doi:10.1021/je1012857).

Test: xn = mol fraction of the nth substance listed
Details: 101 kPa, Liquid; for speed of sound: Sing-around technique in a fixed-path interferometer; for viscosity: Capillary tube (Ostwald / Ubbelohde) method

NCCN [ethane-1,2-diamine] + CCCCO
Details | mass density [kg/m3] | speed of sound [m/s] | viscosity [mPa·s]
293.15 K, x1 = 0.0528 | 815.585 | 1279.7 | –
293.15 K, x1 = 0.1135 | 822.116 | 1302.1 | –
293.15 K, x1 = 0.1488 | 825.769 | 1315.9 | –
293.15 K, x1 = 0.214 | 832.273 | 1341.7 | –
293.15 K, x1 = 0.2602 | 836.674 | 1360.5 | –
293.15 K, x1 = 0.3286 | 842.718 | 1387.1 | –
293.15 K, x1 = 0.3985 | 848.216 | 1414.5 | –
293.15 K, x1 = 0.5036 | 856.28 | 1456.5 | –
293.15 K, x1 = 0.5965 | 863.365 | 1494.7 | –
293.15 K, x1 = 0.7081 | 872.153 | 1543.9 | –
293.15 K, x1 = 0.7931 | 879.359 | 1584.7 | –
293.15 K, x1 = 0.8504 | 884.315 | 1613.6 | –
293.15 K, x1 = 0.8979 | 888.772 | 1639.1 | –
293.15 K, x1 = 0.936 | 892.567 | 1660.5 | –
298.15 K, x1 = 0.0528 | 811.698 | 1262.9 | 2.609
298.15 K, x1 = 0.1135 | 818.144 | 1285 | 2.591
298.15 K, x1 = 0.1488 | 821.746 | 1298.6 | 2.584
298.15 K, x1 = 0.214 | 828.164 | 1324.3 | 2.53
298.15 K, x1 = 0.2602 | 832.509 | 1342.9 | 2.484
298.15 K, x1 = 0.3283 | – | – | 2.412
298.15 K, x1 = 0.3286 | 838.245 | 1368.8 | –
298.15 K, x1 = 0.3985 | 843.943 | 1396.3 | 2.327
298.15 K, x1 = 0.5036 | 851.943 | 1437.7 | 2.184
298.15 K, x1 = 0.5965 | 858.974 | 1475.5 | 2.03
298.15 K, x1 = 0.7081 | 867.696 | 1523.9 | 1.842
298.15 K, x1 = 0.7931 | 874.839 | 1564.1 | 1.697
298.15 K, x1 = 0.8504 | 879.75 | 1592.5 | 1.604
298.15 K, x1 = 0.8979 | 884.168 | 1617.5 | 1.538
298.15 K, x1 = 0.936 | 887.932 | 1638.7 | 1.481
303.15 K, x1 = 0.0528 | 807.785 | 1245.9 | 2.298
303.15 K, x1 = 0.1135 | 814.153 | 1267.9 | 2.3
303.15 K, x1 = 0.1488 | 817.703 | 1281.4 | 2.292
303.15 K, x1 = 0.214 | 824.038 | 1306.8 | 2.245
303.15 K, x1 = 0.2602 | 828.329 | 1325.3 | 2.213
303.15 K, x1 = 0.3283 | – | – | 2.147
303.15 K, x1 = 0.3286 | 833.896 | 1350.9 | –
303.15 K, x1 = 0.3985 | 839.656 | 1378.1 | 2.071
303.15 K, x1 = 0.5036 | 847.599 | 1419.1 | 1.942
303.15 K, x1 = 0.5965 | 854.57 | 1456.3 | 1.813
303.15 K, x1 = 0.7081 | 863.224 | 1504 | 1.648
303.15 K, x1 = 0.7931 | 870.306 | 1543.5 | 1.531
303.15 K, x1 = 0.8504 | 875.173 | 1571.4 | 1.448
303.15 K, x1 = 0.8979 | 879.552 | 1596.1 | 1.381
303.15 K, x1 = 0.936 | 883.288 | 1616.8 | 1.334
308.15 K, x1 = 0.0528 | 803.849 | 1228.5 | 2.001
308.15 K, x1 = 0.1135 | 810.137 | 1250.7 | 2.009
308.15 K, x1 = 0.1488 | 813.64 | 1264.3 | 1.995
308.15 K, x1 = 0.214 | 819.892 | 1289.5 | 1.954
308.15 K, x1 = 0.2602 | 824.133 | 1307.8 | 1.923
308.15 K, x1 = 0.3283 | – | – | 1.866
308.15 K, x1 = 0.3286 | 829.828 | 1333.6 | –
308.15 K, x1 = 0.3985 | 835.352 | 1360 | 1.798
308.15 K, x1 = 0.5036 | 843.235 | 1400.4 | 1.697
308.15 K, x1 = 0.5965 | 850.157 | 1437.1 | 1.601
308.15 K, x1 = 0.7081 | 858.739 | 1484.2 | 1.471
308.15 K, x1 = 0.7931 | 865.762 | 1523 | 1.377
308.15 K, x1 = 0.8504 | 870.584 | 1550.5 | 1.314
308.15 K, x1 = 0.8979 | 874.924 | 1574.8 | 1.25
308.15 K, x1 = 0.936 | 878.628 | 1595.3 | 1.198
313.15 K, x1 = 0.0528 | 799.876 | 1210.7 | –
313.15 K, x1 = 0.1135 | 806.088 | 1233.6 | –
313.15 K, x1 = 0.1488 | 809.548 | 1247.2 | –
313.15 K, x1 = 0.214 | 815.723 | 1272.3 | –
313.15 K, x1 = 0.2602 | 819.91 | 1290.4 | –
313.15 K, x1 = 0.3286 | 825.879 | 1315.8 | –
313.15 K, x1 = 0.3985 | 831.025 | 1341.9 | –
313.15 K, x1 = 0.5036 | 838.849 | 1381.7 | –
313.15 K, x1 = 0.5965 | 845.718 | 1418.1 | –
313.15 K, x1 = 0.7081 | 854.232 | 1464.4 | –
313.15 K, x1 = 0.7931 | 861.194 | 1502.7 | –
313.15 K, x1 = 0.8504 | 865.971 | 1529.7 | –
313.15 K, x1 = 0.8979 | 870.277 | 1553.1 | –
313.15 K, x1 = 0.936 | 873.95 | 1573.7 | –
